# Measurements taken from article PMC9317966, “Structure-function analysis of the AMPK activator SC4 and identification of a potent pan AMPK activator” (Biochemical Journal, 2022).
# How the values were obtained:
# [1] = biological target: T1, E. coli-expressed His-α2β1γ1 AMPK (Homo sapiens, UniProt P54646+Q9Y478); test: In solution SAMS kinase assay, E. coli-expressed myristoylated His-α2β1γ1, CaMKK2-treated; assay type: biochemical; details: for EC50 / Max. fold activation: E. coli-expressed α2β1γ1, CaMKK2-treated; for sensitivity to activation relative to immobilised GST-α2β1γ1 from HEK293T/17 cells: His-tagged myristoylated α2β1γ1, E. coli, CaMKK2-treated
# T1 construct: Recombinant full-length AMPK 6xHisα2β1γ1 was expressed in E. coli Rosetta 2 (DE3); made in house; host or cells: E. coli Rosetta 2 (DE3)
# Excerpt: We directly compared in vitro potencies of pan activators by performing radiolabel kinase assays with γ1AMPK complexes. Initially, we used GST-tagged γ1AMPK expressed in HEK293T/17 cells and immobilised on glutathione-Sepharose (Figure 2 and Table 2). […] These assays used AMPK purified from Sf9 insect cells or E. coli that was pre-treated with CaMKK2. […] However, relative to immobilised GST-α2β1γ1 from HEK293T/17 cells, His-tagged and myristoylated α2β1γ1 AMPK (expressed in E. coli, CaMKK2-treated and assayed in solution) was at least 10-fold more sensitive to activation by both MK-8722 and MSG011 (Supplementary Figure S3B), indicating the GST-affinity tag or CaMKK2 treatment may exert some influence on sensitivity to these activators.
# Recombinant full-length AMPK 6xHisα2β1γ1 was expressed in E. coli Rosetta 2 (DE3) (Merck Millipore) after double-transformation of pET-Duet-1 (α and γ subunits) and pCOLA (β subunit) vectors. Expression cultures were grown at 37°C in Luria-Bertani broth supplemented with 100 µg ml^−1 ampicillin and 50 µg ml^−1 kanamycin. Cultures shaking at 120 rpm in PYREX 2800 ml Fernbach-style culture flasks with baffles (Corning) were grown to an optical density (OD600) of 3.0 before induction with 500 µM isopropyl-β-D-1-thiogalactopyranoside (IPTG; Gold Biotechnology) and incubation overnight at 16°C. Cell pellets were resuspended in lysis buffer (50 mM TRIS pH 7.6, 500 mM NaCl, 5% (v/v) glycerol, 50 mM imidazole, 2 mM β-mercaptoethanol, 0.01 mM leupeptin, 0.1 mM AEBSF, 0.5 mM benzamidine hydrochloride), lysed using a precooled EmulsiFlex-C5 homogeniser (Avestin) and clarified via centrifugation (16 000g, 30 min, 4°C). Supernatant was passed through a HisTrap HP 5 ml Ni^2+ column (GE Healthcare) at 1 ml min^−1. The column was washed with 10 column volumes of chilled Ni^2+ column buffer (50 mM TRIS pH 7.6, 500 mM NaCl, 10% (v/v) glycerol, 50 mM imidazole, 2 mM β-mercaptoethanol) before elution with Ni^2+ column buffer supplemented with 400 mM imidazole. Proteinaceous fractions were then separated on a HiLoad 16/600 Superdex 200 gel filtration column (GE Healthcare) pre-equilibrated with size exclusion column buffer (SEC buffer; 50 mM TRIS pH 8.0, 150 mM NaCl, 2 mM tris(2-carboxyethyl) phosphine (TCEP)). AMPK containing fractions were pooled and concentrated to ∼2 mg ml^−1 using Amicon centrifugal filter units (Merck Millipore) prior to CaMKK2 treatment.
# To phosphorylate AMPK, purified protein was incubated in the presence of 0.5 mM ATP, 0.5 mM AMP, 2.5 mM MgCl2 (Merck Millipore), SEC buffer and purified CaMKK2 (1 : 2500 mass ratio of CaMKK2:AMPK; for 1 h at 22°C with gentle rolling. The phosphorylation reaction was terminated by directly loading onto a HiLoad 16/600 Superdex 200 gel filtration column pre-equilibrated with SEC buffer. Protein was either assayed or concentrated to ∼10 mg ml^−1 using Amicon centrifugal filter units and flash frozen in L-N2 and stored at −80°C. The purified AMPK was analysed by ToF-MS and sample purity confirmed by SDS–PAGE.
# AMPK activity was determined by phosphorylation of the SAMS peptide (Purar Chemicals, sequence: NH2-HMRSAMSGLHLVKRR-COOH) in a 25 µl reaction volume containing 100 µM SAMS peptide, 5 mM MgCl2, 200 µM ATP, [γ-^32P]-ATP (PerkinElmer) and assay buffer (50 mM HEPES pH 7.4, 1 mM DTT and 0.02% (v/v) Tween-20) and purified AMPK. Phosphotransferase activity was conducted at 30°C for 10 min and reactions were quenched by spotting 15 µl onto phosphocellulose ion-exchange chromatography paper (made in-house), followed by repeated washes in 1% H3PO4 (Merck Millipore). Ultima Gold liquid scintillation fluid (5 ml; PerkinElmer) was added to vials containing dried phosphocellulose papers, and the level of ^32P-transfer to the SAMS peptide was determined using a Tri-Carb 2900TR liquid scintillation counter (PerkinElmer).
# ⍺1β1γ1 – in solution E. coli-expressed ⍺2β1γ1
# log [compound] (M) log [compound] (M)
# Compound EC (nM) Max. fold Compound EC50 (nM) Max. fold […]
# [2] = tested on: HepG2 cells and C2C12 myotubes; design: method as in PMID 28705990; details: cited from earlier work
# T1 sequence (P54646 whole entry): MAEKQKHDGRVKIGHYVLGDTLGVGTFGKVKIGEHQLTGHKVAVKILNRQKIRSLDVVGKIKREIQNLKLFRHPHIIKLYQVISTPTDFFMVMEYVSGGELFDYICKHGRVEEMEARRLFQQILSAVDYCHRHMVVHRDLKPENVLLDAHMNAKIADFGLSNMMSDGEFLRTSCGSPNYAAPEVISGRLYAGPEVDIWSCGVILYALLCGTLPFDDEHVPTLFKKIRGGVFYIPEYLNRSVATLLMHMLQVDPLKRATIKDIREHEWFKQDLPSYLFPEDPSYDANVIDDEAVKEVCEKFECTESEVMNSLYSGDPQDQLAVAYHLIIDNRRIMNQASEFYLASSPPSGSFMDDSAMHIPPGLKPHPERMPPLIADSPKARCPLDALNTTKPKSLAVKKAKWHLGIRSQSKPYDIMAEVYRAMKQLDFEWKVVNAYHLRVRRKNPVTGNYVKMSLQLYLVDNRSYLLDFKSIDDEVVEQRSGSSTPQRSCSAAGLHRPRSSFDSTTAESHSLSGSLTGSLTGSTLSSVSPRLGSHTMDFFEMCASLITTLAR
# T1 sequence (Q9Y478 whole entry): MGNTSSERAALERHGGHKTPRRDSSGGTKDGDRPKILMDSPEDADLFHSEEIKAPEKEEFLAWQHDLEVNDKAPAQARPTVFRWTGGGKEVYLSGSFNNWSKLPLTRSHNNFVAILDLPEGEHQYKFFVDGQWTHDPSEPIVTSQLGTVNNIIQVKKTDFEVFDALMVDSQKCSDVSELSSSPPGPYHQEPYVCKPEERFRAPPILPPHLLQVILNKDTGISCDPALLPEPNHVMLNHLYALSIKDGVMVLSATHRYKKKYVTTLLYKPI
# T1 sequence (P54619 whole entry partner): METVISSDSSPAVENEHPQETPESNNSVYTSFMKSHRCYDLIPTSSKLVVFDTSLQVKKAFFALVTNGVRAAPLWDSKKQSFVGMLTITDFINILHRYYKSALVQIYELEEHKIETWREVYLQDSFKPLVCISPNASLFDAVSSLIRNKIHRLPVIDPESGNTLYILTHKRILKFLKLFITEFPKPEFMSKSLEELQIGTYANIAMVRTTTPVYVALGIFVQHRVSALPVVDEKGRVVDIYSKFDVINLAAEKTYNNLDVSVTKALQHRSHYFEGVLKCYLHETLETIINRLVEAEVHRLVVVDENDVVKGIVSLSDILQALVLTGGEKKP
EC50 [1] [nM],Max. fold activation [1] [fold],sensitivity to activation relative to immobilised GST-α2β1γ1 from HEK293T/17 cells [1],SMILES,α-Thr172 phosphorylation ([2]; above 1 µM),"AMPK signalling ([2]; below 1 µM, in the absence of increased α-Thr172 phosphorylation)"
334,3.6,at least 10 fold,"O[C@@H]1CO[C@H]2[C@@H]1OC[C@H]2Oc1nc2nc(-c3ccc(-c4ccccc4)cc3)c(Cl)cc2[nH]1 [MK-8722, reference compound]",elevated α-Thr172,stimulate AMPK signalling
32.6,5.5,at least 10 fold,"CC(=O)NC1CC=C(c2ccc(-c3nc4nc(Oc5ccc(C)c(C(=O)O)c5)[nH]c4cc3Cl)cc2)CC1 (centres unmarked) [MSG011, 5-((5-(4′-Acetamido-2′,3′,4′,5′-tetrahydro-[1,1′-biphenyl]-4-yl)-6-chloro-1H-imidazo[4,5-b]pyridin-2-yl)oxy)-2-methylbenzoic acid]",,
